Measured values: PMC2639639, “Identification of Three Classes of Heteroaromatic Compounds with Activity against Intracellular Trypanosoma cruzi by Chemical Library Screening” (PLoS Neglected Tropical Diseases, 2009)
“Also recorded” adds a separate entry of the source. Where two headings read alike, the source gives them in different places.

Tests used:
[1] = system: T. cruzi (Tulahuen strain) expressing β-galactosidase; assay: T. cruzi growth inhibition assay (β-gal activity, infection of NIH/3T3 cells); assay type: cell-based, Trypanosoma cruzi
Method: NIH/3T3 cells and parasites were harvested, washed once and resuspended in DMEM supplemented with 2% FBS and Pen-Strep-Glut. […] Different numbers of NIH/3T3 cells were seeded in 96-well plates. After 3 h, compounds were added at the indicated concentrations and mixed by pipetting. BZN tablets (Rochagan, Roche) dissolved in DMSO and 4 µM Amphotericin B solution (Sigma-Aldrich) were used as positive controls. Different numbers of T. cruzi parasites were added in a final volume of 200 µl/well. After 4 days, 50 µl of PBS containing 0.5% of the detergent NP40 and 100 µM Chlorophenol Red-β-D-galactoside (CPRG) (Fluka) were added. Plates were incubated at 37°C for 4 h and absorbance was read at 590 nm using a Tecan Spectra Mini plate reader.
To calculate the Z′ factor, we used the formula described by Zhang et al.: Z′ = 1−[(3σc++3σc−) / |μc+−μc−|] where σc+ = standard deviation (SD) of positive control, σc− = SD of negative control, μc+ = mean of positive control, μc− = mean of negative control. Subsequently, the best ratio was used for all growth inhibition assays (50.000 cells and parasites, multiplicity of infection (MOI) 1∶1).
To determine IC50 values, β-gal activity (Abs590) was plotted against compound concentration for each compound. The IC50 was determined as the concentration at which the activity (absorbance) was half that in the absence of compound. Mean IC50 values are the average of independent experiments performed in triplicate on three different days.

NIH/3T3 cells = assay: Cytotoxicity assay (Alamar Blue) on NIH/3T3 cells; assay type: cell-based; conditions: for TC50 > 25 mg/ml: 4-day assay on NIH/3T3 cells
Method: (§1) Cells (NIH/3T3 or HepG2) were washed and plated at a density of 50,000 cells/well of 96-well plates in 200 µl and allowed to adhere for 3 h. Twenty-four hour assays were done in DMEM without phenol red supplemented with 10% FBS and Pen-Strep-Glut, while 4-day assays were done in the same medium containing 2% FBS. Drugs were added and mixed. After 1 or 4 days, 20 µl of Alamar Blue (Biosource, Invitrogen) was added. Plates were incubated for 4 h (HepG2) or 6 h (NIH/3T3) at 37°C and fluorescence was read using a Labsystems Fluoroskan II plate reader (excitation: 544 nm, emission: 590 nm) .
(§2) To determine TC50 values, fluorescence was plotted against inhibitor concentration. TC50 was determined as the concentration at which cytotoxicity (fluorescence) was half that in the absence of inhibitor.

HepG2 cells = assay: Cytotoxicity assay (Alamar Blue) on HepG2 cells; assay type: cell-based, human
Method: as §1, §2

[2] = system: Free trypomastigotes (β-gal T. cruzi); assay: T. cruzi lysis assay; assay type: cell-based; conditions: Trypanosoma cruzi; lysis assay, 100,000 parasites, 24 h
Method: Trypomastigotes were rinsed once and plated in 96-well plates at 100,000/well with the compounds in a final volume of 200 µl of DMEM without phenol red supplemented with 2% FBS, Pen-Strep-Glut and 100 µM CPRG. Plates were incubated for 24 h at 37°C and absorbance was read at 590 nm.

L. major = assay: Leishmania growth inhibition assay in bone marrow-derived macrophages (L. major); assay type: cell-based; conditions: 5 days; for Reduction in parasite burden, L. major: 2 µM, added 2 h post-infection of macrophages; for IC50: Leishmania major, Macrophage, 120 h, macrophages, read-out: estimated IC50 against intracellular L. major
Method: (§3) Adherent bone marrow-derived macrophages were harvested in cold DMEM+0.5 mM EDTA and seeded into an 8-well Lab-Tek II chambered coverglass (Nalge Nunc International, Naperville, IL) at a concentration of 50,000 cells/chamber 24 h before being used for infections.
(§4) L. major and L. amazonensis parasites were opsonized for 30 min by incubation in DMEM containing 4% BALB/c serum and then allowed to invade macrophages in 200 µl DMEM supplemented with 10% FBS and Pen-Strep-Glut, at a MOI of 3 parasites per macrophage for 2 h at 33°C (5% CO2, 95% air humidity),[17]. Thereafter, non-phagocytosed parasites were washed off, and the cultures were further incubated in 300 µl of medium in the presence or the absence of drugs at the indicated concentration for 3 days for L. amazonensis and 5 days for L. major. Medium was changed and drugs were added again at the same concentration on day 2 post-infection. Intracellular parasites were assessed after staining with DAPI (3 µM) by fluorescence microscopy. The total number of amastigotes/500 macrophages was counted in each well. Kruskal-Wallis test was used to analyze the data, followed by a Dunn's post-comparison test.

L. amazonensis = assay: Leishmania growth inhibition assay in bone marrow-derived macrophages (L. amazonensis); assay type: cell-based; conditions: 3 days; for Reduction in parasite burden, L. amazonensis: 2 µM, added 2 h post-infection of macrophages; for IC50: Leishmania amazonensis, Macrophage, 72 h, macrophages, read-out: estimated IC50 against intracellular L. amazonensis
Method: as §3, §4

[3] = system: intracellularly growing T. cruzi amastigotes; assay: Development assay with immunofluorescence (intracellular amastigotes, Tulahuen β-gal strain); assay type: cell-based, Trypanosoma cruzi; conditions: for Number of parasites per infected cell (intracellular replication) / Morphology of intracellularly growing T. cruzi: added after 2 h infection; for Number of parasites per infected cell (intracellular replication): 2 days; for Morphology of intracellularly growing T. cruzi: fixed after 2 or 3 days, PCH1 100 nM, NT1 400 nM, CX1 90 nM
Method: (§5) Fifty thousand NIH/3T3 cells were seeded on sterile glass coverslips in 12-well plates and allowed to adhere overnight. Five million parasites were added (MOI 100∶1) and allowed to infect for 2 h in DMEM+2% FBS and Pen-Strep-Glut. Parasites were rinsed out three times with PBS. Infected cells were further incubated and fixed for 15 min with 4% paraformaldehyde at the times indicated.
(§6) Fixed cells on coverslips were rinsed with PBS, permeabilized for 15 min in PBS with 0.1% Triton X-100 (Sigma-Aldrich). After blocking for 20 min in PBS with 10% goat serum, 1% bovine serum albumin, 100 mM glycine and 0.05% sodium azide, cells were incubated for 1 h at room temperature with a polyclonal rabbit anti-T. cruzi (gift from Dr B. Burleigh, Harvard School of Public Health, Boston, MA) at 1∶2000 dilution. After rinsing, an Alexa Fluor® 488 goat anti-rabbit IgG secondary antibody (Molecular Probes, Invitrogen) was added for 1 h at a 1∶800 dilution. DNA was stained with DAPI and coverslips were mounted on Mowiol. To determine the number of parasites per infected cell, between 200 and 300 infected cells per coverslip were scored in triplicate samples using an inverted Olympus IX70 microscope with a 60× oil objective. Data are presented as mean±standard deviation. Images were taken with the same microscope.

T. cruzi Y strain = assay: Development assay with immunofluorescence (Y strain); assay type: cell-based, Trypanosoma cruzi; conditions: added after 2 h infection, 2 days
Method: as §5, §6

mammalian cells = assay: Cytotoxicity on mammalian cells (cell type not given); assay type: cell-based; conditions: cells and duration not stated
Method: as §1, §2

[4] = Trypanosoma cruzi, TULAHUEN, NIH3T3, other confirmed hits that retained activity at 5 µg/ml, read-out: IC50 < 1 µg/ml
[5] = Trypanosoma cruzi, TULAHUEN, NIH3T3, 96 h, β-gal T. cruzi Tulahuen, 50.000 NIH/3T3 cells and parasites (MOI 1:1), 4 days, read-out: IC50 Intracellular growth
[6] = β-gal T. cruzi Tulahuen, 50.000 NIH/3T3 cells and parasites (MOI 1:1), 4 days, read-out: IC50 Intracellular growth

## CCOC(=O)c1ccc(Nc2nc3nonc3nc2NC(C)C)cc1 [ethyl 4-{[6-(isopropylamino)[1,2,5]oxadiazolo[3,4-b]pyrazin-5-yl]amino}benzoate]
[1]; [4]
  IC50: > 1 µg/mL
NIH/3T3 cells
  TC50 > 25 mg/ml: NO (> 25 mg/ml)

## COc1ccc(NC(=S)NC(=O)c2ccco2)cc1 [N-{[(4-methoxyphenyl)amino]carbonothioyl}-2-furamide]
[1]; [4]
  IC50: > 1 µg/mL
NIH/3T3 cells
  TC50 > 25 mg/ml: YES (> 25 mg/ml)

## Br.Cc1ccnc(Nc2nc(-c3ccccn3)cs2)c1 [4-methyl-N-[4-(2-pyridinyl)-1,3-thiazol-2-yl]-2-pyridinamine hydrobromide]
[1]; [4]
  IC50: < 1 µg/mL
NIH/3T3 cells
  TC50 > 25 mg/ml: NO (> 25 mg/ml)

## O=C(NN=Cc1ccc(-c2cccc(Cl)c2Cl)o1)c1ccccn1 [PCH1, N′-{[5-(2,3-dichlorophenyl)-2-furyl]methylene}-2-pyridinecarbohydrazide]
[1]; [5]
  IC50: 54 ± 10 nM
NIH/3T3 cells
  TC50 NIH/3T3 cells at 4 days: >300 µM
HepG2 cells
  TC50 HepG2 cells at 24 h: >300 µM
  TC50 HepG2 cells at 4 days: 66 ± 7 µM
[2]
  IC50: 240 ± 60 µM
L. major
  Reduction in parasite burden, L. major: about 50%
  IC50: ~2000 nM
L. amazonensis
  Reduction in parasite burden, L. amazonensis: 70%
  IC50: ~100 nM
[3]
  Phenotype of intracellular T. cruzi, compounds added 2 days after infection: induced major defects in cell division at the IC100 and parasite lysis at higher doses
  Number of parasites per infected cell (intracellular replication): induced a growth arrest of intracellular T. cruzi
  Morphology of intracellularly growing T. cruzi: larger amastigotes containing multiple disorganized nuclei and kinetoplasts were observed
T. cruzi Y strain
  Effect on intracellular T. cruzi Y strain: inhibit intracellular replication of T. cruzi Y strain

## Cc1ccc2n(c1)cc(C)[n+]2CC(=O)c1ccc(-c2ccccc2)cc1.[Br-] [1-[2-(4-biphenylyl)-2-oxoethyl]-2,6-dimethylimidazo[1,2-a]pyridin-1-ium bromide]
[1]; [4]
  IC50: > 1 µg/mL
NIH/3T3 cells
  TC50 > 25 mg/ml: YES (> 25 mg/ml)

## Cc1cc(OCCCCCn2ccnc2)cc(C)c1Cl [CX2, 1-[5-(4-chloro-3,5-dimethylphenoxy)pentyl]-1H-imidazole]
[1]; [5]
  IC50: 2 nM
[1]; [6]
  IC50: 2.5 nM
Mammalian cells
  TC50: 19.5 µM

## CCOc1ccc(-c2cn3c4ccccc4n(CCN(CC)CC)c3n2)cc1.Cl [{2-[2-(4-ethoxyphenyl)-9H-imidazo[1,2-a]benzimidazol-9-yl]ethyl}diethylamine hydrochloride]
[1]; [4]
  IC50: > 1 µg/mL
NIH/3T3 cells
  TC50 > 25 mg/ml: NO (> 25 mg/ml)

## O=C(NN=Cc1cc(Br)cc(Br)c1O)c1cccc(N2CCCC2=O)c1 [N'-(3,5-dibromo-2-hydroxybenzylidene)-3-(2-oxo-1-pyrrolidinyl)benzohydrazide]
[1]; [4]
  IC50: > 1 µg/mL
NIH/3T3 cells
  TC50 > 25 mg/ml: NO (> 25 mg/ml)

## CCN(CC)c1ccc(N=Cc2cccc(C)c2)cc1 [N,N-diethyl-N'-(3-methylbenzylidene)-1,4-benzenediamine]
[1]; [4]
  IC50: > 1 µg/mL
NIH/3T3 cells
  TC50 > 25 mg/ml: YES (> 25 mg/ml)

## O=C(NN=Cc1ccc(-c2ccccc2Cl)o1)c1ccccn1 [PCH6, N′-{[5-(2-chlorophenyl)-2-furyl]methylene}-2-pyridinecarbohydrazide]
[1]; [5]
  IC50: 2 nM
[1]; [6]
  IC50: 2.1 nM
Mammalian cells
  TC50: 18.5 µM

## O=c1c2c3c(sc2[nH]c(=S)n1Cc1ccccc1)CCC3 [3-benzyl-2-thioxo-1,2,3,5,6,7-hexahydro-4H-cyclopenta[4,5]thieno[2,3-d]pyrimidin-4-one]
[1]; [4]
  IC50: > 1 µg/mL
NIH/3T3 cells
  TC50 > 25 mg/ml: NO (> 25 mg/ml)

## O=C(NN=Cc1ccc(-c2cccc(Cl)c2Cl)o1)c1ccc(Br)cc1 [PCH4, 4-bromo-N′-{[5-(2,3-dichlorophenyl)-2-furyl]methylene}benzohydrazide]
[1]; [5]
  IC50: > 10000 nM

## O=C(Cn1cnc([N+](=O)[O-])n1)Nc1cc(Oc2cccc(C(F)(F)F)c2)cc([N+](=O)[O-])c1 [NT1, 2-(3-nitro-1H-1,2,4-triazol-1-yl)-N-{3-nitro-5-[3-(trifluoromethyl)phenoxy]phenyl}acetamide]
[1]; [5]
  IC50: 190 ± 40 nM
NIH/3T3 cells
  TC50 NIH/3T3 cells at 4 days: 14 ± 6 µM
HepG2 cells
  TC50 HepG2 cells at 24 h: 30 ± 10 µM
  TC50 HepG2 cells at 4 days: 7.6 ± 0.3 µM
[2]
  IC50: 6.8 ± 0.9 µM
L. major
  Reduction in parasite burden, L. major: ~80%
  IC50: ~500 nM
L. amazonensis
  Reduction in parasite burden, L. amazonensis: 50%
  IC50: ~500 nM
[3]
  Phenotype of intracellular T. cruzi, compounds added 2 days after infection: had a trypanostatic effect
  Number of parasites per infected cell (intracellular replication): induced a growth arrest of intracellular T. cruzi
  Morphology of intracellularly growing T. cruzi: inhibited replication of parasites without altering their overall morphology
T. cruzi Y strain
  Effect on intracellular T. cruzi Y strain: inhibit intracellular replication of T. cruzi Y strain; also recorded: displayed activity on the Y strain, but at higher concentrations

## Cc1cc(Cl)cc(C)c1OCCCCCCn1ccnc1 [CX4, 1-[6-(4-chloro-2,6-dimethylphenoxy)hexyl]-1H-imidazole]
[1]; [5]
  IC50: 300 nM
